Measured values as given in ChEMBL document CHEMBL5244223, “l,8-Naphthalimide based DNA intercalators and anticancer agents. A systematic review from 2007 to 2017” (Eur J Med Chem, 2018).

Experiments:
HL-60 = experiment: Cytotoxicity against human HL-60 cells assessed as inhibition of cell growth incubated for 96 hrs by MTT assay; type: functional, cell-based; conditions: HL-60, 96 h
U-937 = experiment: Cytotoxicity against human U-937 cells assessed as inhibition of cell growth incubated for 96 hrs by MTT assay; type: functional, cell-based; conditions: U-937, 96 h
HCT-116 [1] = experiment: Cytotoxicity against human HCT-116 cells assessed as inhibition of cell growth incubated for 72 hrs by MTT assay; type: functional, cell-based; conditions: HCT-116, 72 h
Calf thymus DNA [2] = experiment: Binding affinity to calf thymus DNA assessed as binding constant by fluorescence based EtBr-displacement based UV-Vis spectroscopic analysis; type: nucleic-acid assay; conditions: Bos taurus
Clupea harengus = experiment: Binding affinity to Atlantic herring DNA assessed as binding constant by fluorescence based EtBr-UV absorption spectral analysis
Salmon testes DNA = experiment: Binding affinity to salmon Testis DNA assessed as equilibrium binding constant by steady-state fluorescence spectroscopic analysis; conditions: Salmo salar
A549 = experiment: Cytotoxicity against human A549 cells assessed as inhibition of cell growth by MTT assay; type: functional, cell-based
SGC-7901 = experiment: Cytotoxicity against human SGC-7901 cells assessed as inhibition of cell growth by MTT assay; type: functional, cell-based
HeLa = experiment: Cytotoxicity against human HeLa cells assessed as inhibition of cell growth by MTT assay; type: functional, cell-based
MCF7 = experiment: Cytotoxicity against human MCF7 cells assessed as inhibition of cell growth by MTT assay; type: functional, cell-based
Calf thymus DNA [3] = experiment: Binding affinity to calf thymus DNA assessed as DNA intercalation by measuring binding constant by fluorescence spectroscopic assay; type: nucleic-acid assay; conditions: Bos taurus
Jurkat = experiment: Antiproliferative activity against human Jurkat cells assessed as inhibition of cell proliferation incubated for 72 hrs by MTT assay; type: functional, cell-based
HepG2 = experiment: Cytotoxicity against human HepG2 cells assessed as inhibition of cell growth incubated for 48 hrs by MTT assay; type: functional, cell-based; conditions: HepG2, 48 h
HCT-116 [4] = experiment: Cytotoxicity against human HCT-116 cells assessed as inhibition of cell growth incubated for 48 hrs by MTT assay; type: functional, cell-based; conditions: HCT-116, 48 h
SMMC-7721 = experiment: Cytotoxicity against human SMMC-7721 cells assessed as inhibition of cell growth incubated for 48 hrs by MTT assay; type: functional, cell-based; conditions: SMMC-7721, 48 h
K562 = experiment: Cytotoxicity against human K562 cells assessed as inhibition of cell growth incubated for 48 hrs by MTT assay; type: functional, cell-based; conditions: K562, 48 h
Proteus = experiment: Antibacterial activity against Proteus ATCC13315 assessed as inhibition of bacterial growth incubated for 24 hrs by two-fold serial dilution assay; type: functional
Pseudomonas aeruginosa = experiment: Antibacterial activity against Pseudomonas aeruginosa assessed as inhibition of bacterial growth incubated for 24 hrs by two-fold serial dilution assay; type: functional
Bacillus subtilis = experiment: Antibacterial activity against Bacillus subtilis ATCC6633 assessed as inhibition of bacterial growth incubated for 24 hrs by two-fold serial dilution assay; type: functional
Salmonella typhi = experiment: Antibacterial activity against Salmonella enterica subsp. enterica serovar Typhi assessed as inhibition of bacterial growth incubated for 24 hrs by two-fold serial dilution assay; type: functional
Staphylococcus aureus [5] = experiment: Antibacterial activity against Staphylococcus aureus ATCC25923 assessed as inhibition of bacterial growth incubated for 24 hrs by two-fold serial dilution assay; type: functional
Micrococcus luteus = experiment: Antibacterial activity against Micrococcus luteus assessed as inhibition of bacterial growth incubated for 24 hrs by two-fold serial dilution assay; type: functional
Staphylococcus aureus [6] = experiment: Antibacterial activity against methicillin-resistant Staphylococcus aureus N315 assessed as inhibition of bacterial growth incubated for 24 hrs by two-fold serial dilution assay; type: functional
Escherichia coli = experiment: Antibacterial activity against Escherichia coli JM109 assessed as inhibition of bacterial growth incubated for 24 hrs by two-fold serial dilution assay; type: functional
Calf thymus DNA [7] = experiment: Binding affinity to calf thymus DNA assessed as DNA intercalation by measuring change in melting temperature by thermal denaturation assay; type: nucleic-acid assay; conditions: Bos taurus

O=C1c2cccc3c([N+](=O)[O-])ccc(c23)C(=O)N1CCO
IC50 (HL-60): 700 nM
IC50 (U-937): 700 nM

O=C1c2cccc3cccc(c23)C(=O)N1CCCN(CCCN(CCO)CCO)CCCN1C(=O)c2cccc3cccc(c23)C1=O
IC50 (HCT-116 [1]): 820 nM

Cc1ccc(-c2cc[n+]3c(c2)-c2cccc[n+]2CC3)cc1
K (Calf thymus DNA [2]): 2.8 10^6/M

NCCNCCCN1C(=O)c2cccc3cccc(c23)C1=O
Kb (Clupea harengus): 1.15 10^4/M

O=C1c2cccc3c([N+](=O)[O-])ccc(c23)C(=O)N1CCCl
IC50 (HL-60): 300 nM
IC50 (U-937): 300 nM

NCCCCNCCCCN1C(=O)c2cccc3cccc(c23)C1=O
Kb (Clupea harengus): 1.15 10^4/M

O=C1c2cccc3cccc(c23)C(=O)N1CCCN(CCCN(CCCl)CCCl)CCCN1C(=O)c2cccc3cccc(c23)C1=O
IC50 (HCT-116 [1]): 350 nM

Nc1ccc2c3c(cccc13)C(=O)N(c1cccc(-c3cc[n+]4c(c3)-c3cccc[n+]3CC4)c1)C2=O
K (Calf thymus DNA [2]): 2.3 10^6/M

O=C1c2cccc3cccc(c23)C(=O)N1CC[n+]1ccccc1
Kb (Salmon testes DNA): 2 10^4/M

CN(C)CCN1C(=O)c2cccc3c(N4CCC[C@@H]4CO)ccc(c23)C1=O
IC50 (A549): 870 nM
IC50 (SGC-7901): 870 nM
IC50 (HeLa): 870 nM
IC50 (MCF7): 870 nM
Kb (Calf thymus DNA [3]): 1.8 10^4/M

Nc1ccc2c3c(cccc13)C(=O)N(CC[n+]1ccccc1)C2=O
Kb (Salmon testes DNA): 1.38 10^5/M

O=C1c2cccc3cccc(c23)C(=O)N1CCCCNCc1ccccn1
IC50 (Jurkat): 5580 nM

CCCCCOC(=O)c1ccc2c3c(cccc13)C(=O)N(CCN(C)C)C2=O
IC50 (HepG2): > 50000 nM
IC50 (HCT-116 [4]): > 50000 nM
IC50 (SMMC-7721): > 50000 nM
IC50 (K562): > 50000 nM

O=C1c2cccc3c(Sc4nc5ccccc5n4Cc4ccc(Cl)cc4Cl)ccc(c23)C(=O)N1CCCCn1c[n+](Cc2ccccc2Cl)cn1
MIC (Proteus): 2 µg/mL
MIC (Pseudomonas aeruginosa): 2 µg/mL
MIC (Bacillus subtilis): 2 µg/mL
MIC (Salmonella typhi): 2 µg/mL
MIC (Staphylococcus aureus [5]): 2 µg/mL
MIC (Micrococcus luteus): 2 µg/mL
MIC (Staphylococcus aureus [6]): 2 µg/mL
MIC (Escherichia coli): 2 µg/mL

O=C1c2cccc3cccc(c23)C(=O)N1CCCNCCN(CCO)CCO
IC50 (HCT-116 [1]): > 40000 nM

O=C1c2cccc3cccc(c23)C(=O)N1CCCCCC/N=C/c1ccccn1
IC50 (Jurkat): 5580 nM

CN(C)CCNCCCN1C(=O)c2cccc3cccc(c23)C1=O
Kb (Clupea harengus): 1.15 10^4/M

O=C1c2cccc3c(Sc4nc5ccccc5n4Cc4ccc(F)cc4)ccc(c23)C(=O)N1CCCCn1cncn1
MIC (Proteus): > 512 µg/mL
MIC (Pseudomonas aeruginosa): > 512 µg/mL
MIC (Bacillus subtilis): > 512 µg/mL
MIC (Salmonella typhi): > 512 µg/mL
MIC (Staphylococcus aureus [5]): > 512 µg/mL
MIC (Micrococcus luteus): > 512 µg/mL
MIC (Staphylococcus aureus [6]): > 512 µg/mL
MIC (Escherichia coli): > 512 µg/mL

NCCNCCCCN1C(=O)c2cccc3cccc(c23)C1=O
Kb (Clupea harengus): 1.15 10^4/M

CN(C)CCN1C(=O)c2cccc3c(N4CC[C@@H](O)C4)ccc(c23)C1=O
IC50 (A549): 870 nM
IC50 (SGC-7901): 870 nM
IC50 (HeLa): 870 nM
IC50 (MCF7): 870 nM
Kb (Calf thymus DNA [3]): 1.8 10^4/M

O=C1c2cccc3c(Sc4nc5ccccc5n4Cc4cccc(Cl)c4)ccc(c23)C(=O)N1CCCCn1cncn1
MIC (Proteus): > 512 µg/mL
MIC (Pseudomonas aeruginosa): > 512 µg/mL
MIC (Bacillus subtilis): > 512 µg/mL
MIC (Salmonella typhi): > 512 µg/mL
MIC (Staphylococcus aureus [5]): > 512 µg/mL
MIC (Micrococcus luteus): > 512 µg/mL
MIC (Staphylococcus aureus [6]): > 512 µg/mL
MIC (Escherichia coli): > 512 µg/mL

O=C1c2cccc3cccc(c23)C(=O)N1CCCNCCCN(CCO)CCO
IC50 (HCT-116 [1]): 6960 nM

O=C1c2cccc3c([N+](=O)[O-])ccc(c23)C(=O)N1c1ccc(-c2cc[n+]3c(c2)-c2cccc[n+]2CC3)cc1
K (Calf thymus DNA [2]): 1.7 10^7/M

O=C1c2cccc3c(Sc4nc5ccccc5n4Cc4ccc(Cl)cc4)ccc(c23)C(=O)N1CCCCn1cncn1
MIC (Proteus): > 512 µg/mL
MIC (Pseudomonas aeruginosa): > 512 µg/mL
MIC (Bacillus subtilis): > 512 µg/mL
MIC (Salmonella typhi): > 512 µg/mL
MIC (Staphylococcus aureus [5]): > 512 µg/mL
MIC (Micrococcus luteus): > 512 µg/mL
MIC (Staphylococcus aureus [6]): > 512 µg/mL
MIC (Escherichia coli): > 512 µg/mL

CN(C)CCN1C(=O)c2cccc3c2c(cc2nc(C(F)(F)F)c(C(F)(F)F)nc23)C1=O
IC50 (HeLa): 3800 nM

O=C1c2cccc3c(Sc4nc5ccccc5n4Cc4ccccc4Cl)ccc(c23)C(=O)N1CCCCn1cncn1
MIC (Proteus): > 512 µg/mL
MIC (Pseudomonas aeruginosa): > 512 µg/mL
MIC (Bacillus subtilis): > 512 µg/mL
MIC (Salmonella typhi): > 512 µg/mL
MIC (Staphylococcus aureus [5]): > 512 µg/mL
MIC (Micrococcus luteus): > 512 µg/mL
MIC (Staphylococcus aureus [6]): > 512 µg/mL
MIC (Escherichia coli): > 512 µg/mL

O=C1c2cccc3c(Sc4nc5ccccc5n4Cc4cccc(F)c4)ccc(c23)C(=O)N1CCCCn1cncn1
MIC (Proteus): > 512 µg/mL
MIC (Pseudomonas aeruginosa): > 512 µg/mL
MIC (Bacillus subtilis): > 512 µg/mL
MIC (Salmonella typhi): > 512 µg/mL
MIC (Staphylococcus aureus [5]): > 512 µg/mL
MIC (Micrococcus luteus): > 512 µg/mL
MIC (Staphylococcus aureus [6]): > 512 µg/mL
MIC (Escherichia coli): > 512 µg/mL

COC(=O)c1ccc2c3c(cccc13)C(=O)N(CCN(C)C)C2=O
IC50 (HepG2): 13700 nM
IC50 (HCT-116 [4]): 13700 nM
IC50 (SMMC-7721): 13700 nM
IC50 (K562): 13700 nM

CN(C)c1ccc2c3c(cccc13)C(=O)N(CCc1cc[n+](C)cc1)C2=O
Kb (Salmon testes DNA): 1.38 10^5/M

CCCCOC(=O)c1ccc2c3c(cccc13)C(=O)N(CCN(C)C)C2=O
IC50 (HepG2): > 50000 nM
IC50 (HCT-116 [4]): > 50000 nM
IC50 (SMMC-7721): > 50000 nM
IC50 (K562): > 50000 nM

CN(C)CCN1C(=O)c2cccc3c(N4CCC[C@H]4CO)ccc(c23)C1=O
IC50 (A549): 870 nM
IC50 (SGC-7901): 870 nM
IC50 (HeLa): 870 nM
IC50 (MCF7): 870 nM
Kb (Calf thymus DNA [3]): 1.8 10^4/M

NCCNCCCCCN1C(=O)c2cccc3cccc(c23)C1=O
Kb (Clupea harengus): 1.15 10^4/M

CN(C)CCN1C(=O)c2cccc3c2c(cc2nccnc23)C1=O
IC50 (HeLa): 1900 nM
ΔTm (Calf thymus DNA [7]): 3.9 °C

NCCCNCCCCN1C(=O)c2cccc3cccc(c23)C1=O
Kb (Clupea harengus): 1.15 10^4/M

O=C1c2cccc3cccc(c23)C(=O)N1CCNCc1ccccn1
IC50 (Jurkat): 5580 nM

O=C1c2cccc3c([N+](=O)[O-])ccc(c23)C(=O)N1CCCO
IC50 (HL-60): 700 nM
IC50 (U-937): 700 nM

CN(C)CCN1C(=O)c2cccc3c(N4CC[C@H](O)C4)ccc(c23)C1=O
IC50 (A549): 870 nM
IC50 (SGC-7901): 870 nM
IC50 (HeLa): 870 nM
IC50 (MCF7): 870 nM
Kb (Calf thymus DNA [3]): 1.8 10^4/M

O=C1c2cccc3cccc(c23)C(=O)N1CCCNCCCN(CCCl)CCCl
IC50 (HCT-116 [1]): 1400 nM

CCOC(=O)c1ccc2c3c(cccc13)C(=O)N(CCN(C)C)C2=O
IC50 (HepG2): 13700 nM
IC50 (HCT-116 [4]): 13700 nM
IC50 (SMMC-7721): 13700 nM
IC50 (K562): 13700 nM

O=C1c2cccc3cccc(c23)C(=O)N1CCCN(CCCN1C(=O)c2cccc3cccc(c23)C1=O)CCN(CCO)CCO
IC50 (HCT-116 [1]): > 15000 nM

CCCOC(=O)c1ccc2c3c(cccc13)C(=O)N(CCN(C)C)C2=O
IC50 (HepG2): > 50000 nM
IC50 (HCT-116 [4]): > 50000 nM
IC50 (SMMC-7721): > 50000 nM
IC50 (K562): > 50000 nM

O=C1c2cccc3c(Sc4nc5ccccc5n4Cc4ccc(F)cc4F)ccc(c23)C(=O)N1CCCCn1cncn1
MIC (Proteus): > 512 µg/mL
MIC (Pseudomonas aeruginosa): > 512 µg/mL
MIC (Bacillus subtilis): > 512 µg/mL
MIC (Salmonella typhi): > 512 µg/mL
MIC (Staphylococcus aureus [5]): > 512 µg/mL
MIC (Micrococcus luteus): > 512 µg/mL
MIC (Staphylococcus aureus [6]): > 512 µg/mL
MIC (Escherichia coli): > 512 µg/mL

O=C1c2cccc3c([N+](=O)[O-])ccc(c23)C(=O)N1CCCCl
IC50 (HL-60): 300 nM
IC50 (U-937): 300 nM

O=C1c2cccc3cccc(c23)C(=O)N1CCCC/N=C/c1ccccn1
IC50 (Jurkat): 5580 nM
